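Growth conditions: 96-well plates. Treatment: test compound, 48 hours, 5 concentrations. Analysis: linear interpolation between bracketing concentrations; unreached endpoints set to highest concentration. At the GI50, growth is halved. TGI: total growth inhibition.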
Experiments:
Test in all cases: NCI-60 cell line screen, 48 h; in the data active = GI50 below about 0.43 µM; inactive = the rest
786-0 renal = system: 786-0 renal
A498 renal = system: A498 renal
A549 NSCLC = system: A549 NSCLC
ACHN renal = system: ACHN renal
BT-549 breast = system: BT-549 breast
CAKI-1 renal = system: CAKI-1 renal
CCRF-CEM leukemia = system: CCRF-CEM leukemia
COLO 205 colon = system: COLO 205 colon
DU-145 prostate = system: DU-145 prostate
EKVX NSCLC = system: EKVX NSCLC
HCC-2998 colon = system: HCC-2998 colon
HCT-116 colon = system: HCT-116 colon
HCT-15 colon = system: HCT-15 colon
HL-60(TB) leukemia = system: HL-60(TB) leukemia
HOP-62 NSCLC = system: HOP-62 NSCLC
HOP-92 NSCLC = system: HOP-92 NSCLC
HS 578T breast = system: HS 578T breast
HT29 colon = system: HT29 colon
K-562 leukemia = system: K-562 leukemia
KM12 colon = system: KM12 colon
LOX IMVI melanoma = system: LOX IMVI melanoma
M14 melanoma = system: M14 melanoma
MALME-3M melanoma = system: MALME-3M melanoma
MCF7 breast = system: MCF7 breast
MDA-MB-231 breast = system: MDA-MB-231 breast
MDA-MB-435 = system: MDA-MB-435
MDA-MB-468 breast = system: MDA-MB-468 breast
MOLT-4 leukemia = system: MOLT-4 leukemia
NCI-H23 lung = system: NCI-H23 lung
NCI-H460 lung = system: NCI-H460 lung
NCI-H522 lung = system: NCI-H522 lung
NCI/ADR-RES ovarian = system: NCI/ADR-RES ovarian
OVCAR-3 ovarian = system: OVCAR-3 ovarian
OVCAR-4 ovarian = system: OVCAR-4 ovarian
OVCAR-5 ovarian = system: OVCAR-5 ovarian
OVCAR-8 ovarian = system: OVCAR-8 ovarian
PC-3 prostate = system: PC-3 prostate
RPMI-8226 leukemia = system: RPMI-8226 leukemia
RXF 393 renal = system: RXF 393 renal
SF-268 CNS = system: SF-268 CNS
SF-295 CNS = system: SF-295 CNS
SF-539 CNS = system: SF-539 CNS
SK-MEL-2 melanoma = system: SK-MEL-2 melanoma
SK-MEL-28 melanoma = system: SK-MEL-28 melanoma
SK-MEL-5 melanoma = system: SK-MEL-5 melanoma
SK-OV-3 ovarian = system: SK-OV-3 ovarian
SN12C renal = system: SN12C renal
SNB-19 CNS = system: SNB-19 CNS
SNB-75 CNS = system: SNB-75 CNS
SR leukemia = system: SR leukemia
SW-620 colon = system: SW-620 colon
T-47D breast = system: T-47D breast
TK-10 renal = system: TK-10 renal
U251 CNS = system: U251 CNS
UACC-257 melanoma = system: UACC-257 melanoma
UACC-62 melanoma = system: UACC-62 melanoma
UO-31 renal = system: UO-31 renal

Cc1nc(Nc2ncc(C(=O)Nc3c(C)cccc3Cl)s2)cc(N2CCN(CCCNC(=O)COc3ccc(C4CCC(=O)NC4=O)cc3)CC2)n1 (stereo not drawn)
> 92.5 µM: TGI (HCT-116 colon)
4.7 µM: TGI (SF-539 CNS)
6.95 µM: TGI (SK-OV-3 ovarian)
active: GI50 (CAKI-1 renal) 0.206 µM | GI50 (COLO 205 colon) 0.0695 µM | GI50 (HOP-62 NSCLC) 0.336 µM | GI50 (HOP-92 NSCLC) < 0.01 µM | GI50 (HS 578T breast) 0.0167 µM | GI50 (HT29 colon) 0.181 µM | GI50 (K-562 leukemia) < 0.01 µM | GI50 (LOX IMVI melanoma) 0.0182 µM | GI50 (MDA-MB-231 breast) 0.0256 µM | GI50 (MDA-MB-468 breast) 0.172 µM | GI50 (OVCAR-3 ovarian) 0.275 µM | GI50 (OVCAR-5 ovarian) 0.191 µM | GI50 (RXF 393 renal) 0.0147 µM | GI50 (SF-268 CNS) 0.11 µM | GI50 (SF-539 CNS) 0.0507 µM | GI50 (SN12C renal) 0.0309 µM | GI50 (SNB-75 CNS) < 0.01 µM
> 100 µM: TGI (786-0 renal) | TGI (A498 renal) | TGI (ACHN renal) | TGI (BT-549 breast) | TGI (CCRF-CEM leukemia) | TGI (COLO 205 colon) | TGI (DU-145 prostate) | TGI (EKVX NSCLC) | TGI (HCC-2998 colon) | TGI (HCT-15 colon) | TGI (HL-60(TB) leukemia) | TGI (HOP-62 NSCLC) | TGI (K-562 leukemia) | TGI (KM12 colon) | TGI (M14 melanoma) | TGI (MALME-3M melanoma) | TGI (MCF7 breast) | TGI (MDA-MB-435) | TGI (MOLT-4 leukemia) | TGI (NCI-H23 lung) | TGI (NCI-H460 lung) | TGI (NCI-H522 lung) | TGI (NCI/ADR-RES ovarian) | TGI (OVCAR-3 ovarian) | TGI (OVCAR-4 ovarian) | TGI (OVCAR-5 ovarian) | TGI (PC-3 prostate) | TGI (RPMI-8226 leukemia) | TGI (SF-268 CNS) | TGI (SF-295 CNS) | TGI (SK-MEL-2 melanoma) | TGI (SK-MEL-28 melanoma) | TGI (SK-MEL-5 melanoma) | TGI (SN12C renal) | TGI (SNB-19 CNS) | TGI (SR leukemia) | TGI (SW-620 colon) | TGI (T-47D breast) | TGI (U251 CNS) | TGI (UACC-257 melanoma) | TGI (UACC-62 melanoma) | TGI (UO-31 renal)
> 48.1 µM: TGI (A549 NSCLC)
0.081 µM: TGI (RXF 393 renal)
2.54 µM: TGI (HT29 colon)
0.13 µM: TGI (HS 578T breast)
4.12 µM: TGI (TK-10 renal)
10.6 µM: TGI (MDA-MB-231 breast)
1.83 µM: TGI (CAKI-1 renal)
5.16 µM: TGI (MDA-MB-468 breast)
inactive: GI50 (786-0 renal) 0.445 µM | GI50 (A498 renal) 2.93 µM | GI50 (A549 NSCLC) 2.23 µM | GI50 (ACHN renal) 0.757 µM | GI50 (BT-549 breast) > 100 µM | GI50 (CCRF-CEM leukemia) 34 µM | GI50 (DU-145 prostate) 2.3 µM | GI50 (EKVX NSCLC) 1.85 µM | GI50 (HCC-2998 colon) > 100 µM | GI50 (HCT-116 colon) 2.5 µM | GI50 (HCT-15 colon) 9.01 µM | GI50 (HL-60(TB) leukemia) > 79.5 µM | GI50 (KM12 colon) > 91.9 µM | GI50 (M14 melanoma) > 59.2 µM | GI50 (MALME-3M melanoma) > 100 µM | GI50 (MCF7 breast) > 100 µM | GI50 (MDA-MB-435) > 100 µM | GI50 (MOLT-4 leukemia) 7.64 µM | GI50 (NCI-H23 lung) 16.9 µM | GI50 (NCI-H460 lung) > 100 µM | GI50 (NCI-H522 lung) 1.3 µM | GI50 (NCI/ADR-RES ovarian) > 100 µM | GI50 (OVCAR-4 ovarian) > 100 µM | GI50 (OVCAR-8 ovarian) 0.934 µM | GI50 (PC-3 prostate) 2.43 µM | GI50 (RPMI-8226 leukemia) > 100 µM | GI50 (SF-295 CNS) 6.78 µM | GI50 (SK-MEL-2 melanoma) > 100 µM | GI50 (SK-MEL-28 melanoma) > 100 µM | GI50 (SK-MEL-5 melanoma) 66.7 µM | GI50 (SK-OV-3 ovarian) 0.505 µM | GI50 (SNB-19 CNS) > 100 µM | GI50 (SR leukemia) 2.8 µM | GI50 (SW-620 colon) > 100 µM | GI50 (T-47D breast) 0.454 µM | GI50 (TK-10 renal) 0.517 µM | GI50 (U251 CNS) > 100 µM | GI50 (UACC-257 melanoma) > 100 µM | GI50 (UACC-62 melanoma) > 100 µM | GI50 (UO-31 renal) 1.47 µM
0.0498 µM: TGI (HOP-92 NSCLC)
0.218 µM: TGI (LOX IMVI melanoma)
> 52.2 µM: TGI (OVCAR-8 ovarian)
